Data reported in publication PMC5263243, “PPE Surface Proteins Are Required for Heme Utilization by Mycobacterium tuberculosis” (mBio, 2017).
pKd: −log10 of the molar value.

Tests used:
PPE62 = target: T1, PPE62 (Mycobacterium tuberculosis, UniProt P9WHX7); test: SPR (Biacore T200, NTA chip, […] binding model); conditions: read-out: Heme dissociation constant
T1 construct: PPE62His6 (Rv3533c)
T1 sequence (P9WHX7 1-582): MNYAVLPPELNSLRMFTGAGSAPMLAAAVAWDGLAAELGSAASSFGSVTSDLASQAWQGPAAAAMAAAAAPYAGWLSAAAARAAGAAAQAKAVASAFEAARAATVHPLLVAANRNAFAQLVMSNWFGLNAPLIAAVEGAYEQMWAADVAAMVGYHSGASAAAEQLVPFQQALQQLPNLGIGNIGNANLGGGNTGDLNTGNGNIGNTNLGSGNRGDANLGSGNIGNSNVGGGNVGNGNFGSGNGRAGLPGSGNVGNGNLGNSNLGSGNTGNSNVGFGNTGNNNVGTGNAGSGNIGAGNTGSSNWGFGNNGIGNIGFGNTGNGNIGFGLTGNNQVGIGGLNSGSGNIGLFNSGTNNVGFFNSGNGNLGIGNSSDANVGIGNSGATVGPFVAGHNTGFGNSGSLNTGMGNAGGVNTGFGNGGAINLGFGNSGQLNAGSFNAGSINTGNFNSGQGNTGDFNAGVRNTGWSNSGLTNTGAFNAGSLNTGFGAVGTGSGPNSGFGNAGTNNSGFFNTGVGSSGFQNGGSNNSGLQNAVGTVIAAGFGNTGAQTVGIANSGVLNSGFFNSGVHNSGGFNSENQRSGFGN

PPE36 = PPE36 (Mycobacterium tuberculosis, UniProt P9WI01); test: biochemical
Chain of PPE36 (P9WI01 whole entry): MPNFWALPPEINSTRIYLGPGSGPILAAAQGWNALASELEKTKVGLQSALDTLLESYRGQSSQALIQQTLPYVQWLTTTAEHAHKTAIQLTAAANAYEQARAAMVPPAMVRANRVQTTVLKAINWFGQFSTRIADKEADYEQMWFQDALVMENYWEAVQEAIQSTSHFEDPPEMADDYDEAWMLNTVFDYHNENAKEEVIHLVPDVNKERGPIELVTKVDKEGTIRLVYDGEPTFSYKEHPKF
Chain of PPE36 (L7N6B5 1-98 partner): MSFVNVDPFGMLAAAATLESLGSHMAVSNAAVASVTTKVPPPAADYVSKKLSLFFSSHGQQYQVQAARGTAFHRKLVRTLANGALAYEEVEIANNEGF

With C=CC1=C(C)C2=Cc3c(C=C)c(C)c4[n]3[Fe]([Cl])[n]3c(c(C)c(CCC(=O)O)c3=CC3=NC(=C4)C(C)=C3CCC(=O)O)=CC1=N2 [hemin] the pKd (PPE62) was 3.40 and the pKd (PPE36) was 2.40.
